This note sets out measurements from patent EP0908457B1, “3-(1,2-benzisothiazol- and isoxazol-5-Y1)-2,4(1H,3H)-pyrimidinedione or thione and 3-(1,2-benzisothiazol- and isoxazol-5-y1)-4(3H)-pyrimidinone or thione herbicidal agents” (BASF AKTIENGESELLSCHAFT, priority 1997, dated 1999).

Each structure is given as a SMILES string.

What all share (type): in vivo
Test [1] has as its system Echinochloa oryzoides (Ard.) Fritsch. Briefly: Preemergence weed control under flooded paddy conditions, ECHORC (Watergrass (Calif.)). On herbicidal effect rating, ECHORC: meaning of each grade not given here. Conditions: preemergence, flooded paddy.
The subject of a further test is Cyperus iria. Nature of the test: Preemergence weed control under flooded paddy conditions, CYPIR (Rice Flatsedge). On herbicidal effect rating, CYPIR: meaning of each grade not given here. Conditions: preemergence, flooded paddy.
Test [2] relates to Cyperus serotinus, Rottb. Nature of the test: Preemergence weed control under flooded paddy conditions, CYPSE (Flatsedge). On herbicidal effect rating, CYPSE: meaning of each grade not given here. Conditions: preemergence.
Test [3] deals with Monochoria vaginalis, Presl. Nature of the test: Preemergence weed control under flooded paddy conditions, MOOVA (Monochoria). On herbicidal effect rating, MOOVA: meaning of each grade not given here. The settings on record: preemergence, flooded paddy.
The next test deals with Sagittaria pygmaea, L. Briefly: Preemergence weed control under flooded paddy conditions, SAGPY (Arrowhead (Pygmaea)). On herbicidal effect rating, SAGPY: meaning of each grade not given here. Conditions: preemergence, flooded paddy.
The mark [4] stands for this setting: Rate 0.0320 kg/ha, rated three to four weeks after treatment.
The mark [5] stands for this setting: Rate 0.0620 kg/ha, rated three to four weeks after treatment.
Setting [6] is: Rate 0.1250 kg/ha, rated three to four weeks after treatment.
Setting [7] is: Rate 0.2500 kg/ha, rated three to four weeks after treatment.
The mark [8] stands for this setting: 0.0320 kg/ha, rated three to four weeks after treatment.
Setting [9] is: 0.0620 kg/ha, rated three to four weeks after treatment.
Where [10] appears, read: 0.1250 kg/ha, rated three to four weeks after treatment.
Setting [11] is: 0.2500 kg/ha, rated three to four weeks after treatment.
The mark [12] stands for this setting: Rate 0.0320 kg/ha, rated 3-4 weeks after treatment.
Setting [13] is: Rate 0.0620 kg/ha, rated 3-4 weeks after treatment.
The mark [14] stands for this setting: Rate 0.1250 kg/ha, rated 3-4 weeks after treatment.
Where [15] appears, read: Rate 0.2500 kg/ha, rated 3-4 weeks after treatment.

For `CC(C)S(=O)(=O)OCc1nsc2ccc(-n3c(=O)cc(C(F)(F)F)n(C)c3=O)cc12` [Example 371, 2,4(1H,3H)-Pyrimidinedione, 3-[3-(hydroxymethyl)-1,2-benzisothiazol-5-yl]-1-methyl-6-(trifluoromethyl)-, 1-methylethanesulfonate (ester)], the “herbicidal effect rating, ECHORC” value in test [1] (setting [4]) is 3.0; in test [1] (setting [5]), 4.0; in test [1] (setting [6]), 6.0; in test [1] (setting [7]), 7.0. The “herbicidal effect rating, CYPIR” value is 4.0 in the test on Cyperus iria (setting [4]), 6.0 with Cyperus iria (setting [5]), 9.0 with Cyperus iria (setting [6]) and 9.0 in the test on Cyperus iria (setting [7]). The “herbicidal effect rating, CYPSE” value in test [2] (setting [4]) stood at 0.0; in test [2] (setting [5]), 0.0; in test [2] (setting [6]) it was 6.0; in test [2] (setting [7]), 9.0. The “herbicidal effect rating, MOOVA” value in test [3] (setting [4]), in test [3] (setting [5]), in test [3] (setting [6]) and in test [3] (setting [7]) was 9.0 in each case. For the same molecule, the “herbicidal effect rating, SAGPY” value is 3.0 in the test with Sagittaria pygmaea, L. (setting [4]); 4.0 with Sagittaria pygmaea, L. (setting [5]); 9.0 with Sagittaria pygmaea, L. (setting [6]); 9.0 in the test with Sagittaria pygmaea, L. (setting [7]).

Take `Cn1c(C(F)(F)F)cc(=O)n(-c2ccc3snc(C(C#N)=CC4CCCC4)c3c2)c1=O` [Example 607, 1,2-Benzisothiazole-3-acetonitrile, alpha(cyclopentylmethylene)-5-[3,6-dihydro-3-methyl-2,6-dioxo-4-(trifluoromethyl)-1(2H)-pyrimidinyl]-, (E)- and (Z)-]: the “herbicidal effect rating, ECHORC” value is reported as 4.0 in test [1] (setting [4]), 7.0 in test [1] (setting [5]), 9.0 in test [1] (setting [6]) and 9.0 in test [1] (setting [7]). In addition, the “herbicidal effect rating, CYPIR” value with Cyperus iria (setting [4]) was determined as 0.0; with Cyperus iria (setting [5]), 2.0; with Cyperus iria (setting [6]) it was 5.0; in the test with Cyperus iria (setting [7]) it was 5.0. In addition, the “herbicidal effect rating, CYPSE” value in test [2] (setting [5]), in test [2] (setting [6]) and in test [2] (setting [7]) was 0.0 each time. Moreover, the “herbicidal effect rating, MOOVA” value amounted to 6.0 in test [3] (setting [4]), 7.0 in test [3] (setting [5]), 9.0 in test [3] (setting [6]) and 9.0 in test [3] (setting [7]). Also, the “herbicidal effect rating, SAGPY” value in the test with Sagittaria pygmaea, L. (setting [4]) is 0.0; in the test with Sagittaria pygmaea, L. (setting [5]), 0.0; in the test on Sagittaria pygmaea, L. (setting [6]), 0.0; in the test with Sagittaria pygmaea, L. (setting [7]) it was 3.0.

As for `Cn1c(C(F)(F)F)cc(=O)n(-c2ccc3snc(COC(=O)c4cccnc4Cl)c3c2)c1=O` [Example 480, 2,4(1H,3H)-Pyrimidinedione, 3-[3-(hydroxymethyl)-1,2-benzisothiazol-5-yl]-1-methyl-6-(trifluoromethyl)-, 2-chloronicotinate (ester)], the ECHORC herbicidal rating worked out at 0.0 in test [1] (setting [8]), 2.0 in test [1] (setting [9]), 5.0 in test [1] (setting [10]) and 6.0 in test [1] (setting [11]). The CYPIR herbicidal rating was determined as 6.0 in the test with Cyperus iria (setting [8]), 9.0 in the test with Cyperus iria (setting [9]), 9.0 with Cyperus iria (setting [10]) and 9.0 in the test on Cyperus iria (setting [11]). Further, the CYPSE herbicidal rating in test [2] (setting [8]) and in test [2] (setting [10]) was 3.0 in each case. The MOOVA herbicidal rating was 7.0 in test [3] (setting [8]), 9.0 in test [3] (setting [9]), 9.0 in test [3] (setting [10]) and 9.0 in test [3] (setting [11]). Also, the SAGPY herbicidal rating was found to be 0.0 with Sagittaria pygmaea, L. (setting [8]); 3.0 in the test on Sagittaria pygmaea, L. (setting [9]); 5.0 in the test on Sagittaria pygmaea, L. (setting [10]); 6.0 with Sagittaria pygmaea, L. (setting [11]).

Take `CCOC(=O)C1CCC(OC(=O)COc2ccc(C)cc2-c2nsc3ccc(-n4c(=O)cc(C(F)(F)F)n(C)c4=O)cc23)CC1` (single isomer, unassigned; isomer a) [Example 524, Acetic acid, {{2-{5-[3,6-dihydro-3-methyl-2,6-dioxo-4-(trifluoromethyl)-1(2H)-pyrimidinyl]-1,2-benzisothiazol-3-yl}-p-tolyl}oxy}-, ester with ethyl 4-hydroxycyclohexanecarboxylate, isomer A]: the “herbicidal effect rating, ECHORC” value in test [1] (setting [12]) is recorded as 7.0; in test [1] (setting [13]), 9.0; in test [1] (setting [14]), 9.0; in test [1] (setting [15]), 9.0. For the same molecule, the “herbicidal effect rating, CYPIR” value is listed as 2.0 in the test on Cyperus iria (setting [12]), 2.0 in the test with Cyperus iria (setting [13]), 4.0 with Cyperus iria (setting [14]) and 7.0 with Cyperus iria (setting [15]). In addition, the “herbicidal effect rating, CYPSE” value in test [2] (setting [12]) is 0.0; in test [2] (setting [13]), 0.0; in test [2] (setting [14]) it was 2.0; in test [2] (setting [15]), 6.0. The “herbicidal effect rating, MOOVA” value in test [3] (setting [12]), in test [3] (setting [13]), in test [3] (setting [14]) and in test [3] (setting [15]) was 9.0 each time. Besides, the “herbicidal effect rating, SAGPY” value in the test on Sagittaria pygmaea, L. (setting [12]) is 0.0; in the test with Sagittaria pygmaea, L. (setting [13]) it was 0.0; with Sagittaria pygmaea, L. (setting [14]), 0.0; in the test with Sagittaria pygmaea, L. (setting [15]), 0.0.

With `Cn1c(C(F)(F)F)cc(=O)n(-c2ccc3snc(C(C#N)=Cc4ccccc4C#N)c3c2)c1=O` [Example 606, 1,2-Benzisothiazole-3-acetonitrile, alpha-(o-cyanobenzylidene)-5-[3,6-dihydro-3-methyl-2,6-dioxo-4-(trifluoromethyl)-1(2H)-pyrimidinyl]-, (E)- and (Z)-], the “herbicidal effect rating, ECHORC” value is 5.0 in test [1] (setting [4]), 5.0 in test [1] (setting [5]), 5.0 in test [1] (setting [6]) and 6.0 in test [1] (setting [7]). The “herbicidal effect rating, CYPIR” value is given as 4.0 in the test on Cyperus iria (setting [4]), 6.0 in the test with Cyperus iria (setting [5]), 6.0 in the test on Cyperus iria (setting [6]) and 9.0 in the test on Cyperus iria (setting [7]). Besides, the “herbicidal effect rating, CYPSE” value in test [2] (setting [4]) is given as 0.0; in test [2] (setting [5]), 2.0; in test [2] (setting [6]), 2.0; in test [2] (setting [7]), 2.0. Further, the “herbicidal effect rating, MOOVA” value in test [3] (setting [4]) came out at 6.0; in test [3] (setting [5]), 7.0; in test [3] (setting [6]), 7.0; in test [3] (setting [7]), 9.0. Moreover, the “herbicidal effect rating, SAGPY” value is recorded as 0.0 in the test with Sagittaria pygmaea, L. (setting [4]); 3.0 in the test with Sagittaria pygmaea, L. (setting [6]); 4.0 with Sagittaria pygmaea, L. (setting [7]).

As for `Cn1c(C(F)(F)F)cc(=O)n(-c2ccc3snc(C(C)(C)C(=O)OCc4ccccc4)c3c2)c1=O` [Example 396, 1,2-Benzisothiazole-3-acetic acid, 5-[3,6-dihydro-3-methyl-2,6-dioxo-4-(trifluoromethyl)-1(2H)-pyrimidinyl]-alpha,alpha-dimethyl-, benzyl ester], the “herbicidal effect rating, ECHORC” value in test [1] (setting [4]), in test [1] (setting [5]), in test [1] (setting [6]) and in test [1] (setting [7]) was 9.0 each time. Also, the “herbicidal effect rating, CYPIR” value in the test with Cyperus iria (setting [4]) is 7.0; in the test with Cyperus iria (setting [5]), 8.0; with Cyperus iria (setting [6]) it was 9.0; with Cyperus iria (setting [7]), 9.0. Further, the “herbicidal effect rating, CYPSE” value came to 0.0 in test [2] (setting [4]), 0.0 in test [2] (setting [5]), 0.0 in test [2] (setting [6]) and 6.0 in test [2] (setting [7]). In addition, the “herbicidal effect rating, MOOVA” value in test [3] (setting [4]), in test [3] (setting [5]), in test [3] (setting [6]) and in test [3] (setting [7]) was 9.0 in each case. Besides, the “herbicidal effect rating, SAGPY” value in the test with Sagittaria pygmaea, L. (setting [4]) is on record as 7.0; in the test with Sagittaria pygmaea, L. (setting [5]), 7.0; with Sagittaria pygmaea, L. (setting [6]) it was 8.0; in the test on Sagittaria pygmaea, L. (setting [7]) it was 8.0.
